Reference: patent publication US20100003246A1, “Novel heterocyclic compounds and uses therof” (priority 2008, published 2010)

Molecular target: T1, b-Raf(V600E) (Homo sapiens, UniProt P15056, V600E)
T1 construct: made in house
Experiment: Raf/Mek Amplified Luminescence Proximity Homogeneous Assay (Alpha Screen), b-Raf(V600E)
Type: biochemical
Settings: mutant b-Raf(V600E), read-out: mut-b-RAF (IC50 in uM)
Procedure, shortened: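 IC50 derived by non-linear regression from AlphaScreen luminescence of phospho-MEK (anti-p-MEK antibody). Reaction: ~4 pM b-Raf(V600E), ~10 nM kinase-dead biotinylated Mek, 60 min compound pre-incubation, then 3 h with ATP at room temperature in pH 7.5 Tris/MgCl2/DTT buffer, quenched with EDTA.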

T1 sequence (P15056 whole entry V600E): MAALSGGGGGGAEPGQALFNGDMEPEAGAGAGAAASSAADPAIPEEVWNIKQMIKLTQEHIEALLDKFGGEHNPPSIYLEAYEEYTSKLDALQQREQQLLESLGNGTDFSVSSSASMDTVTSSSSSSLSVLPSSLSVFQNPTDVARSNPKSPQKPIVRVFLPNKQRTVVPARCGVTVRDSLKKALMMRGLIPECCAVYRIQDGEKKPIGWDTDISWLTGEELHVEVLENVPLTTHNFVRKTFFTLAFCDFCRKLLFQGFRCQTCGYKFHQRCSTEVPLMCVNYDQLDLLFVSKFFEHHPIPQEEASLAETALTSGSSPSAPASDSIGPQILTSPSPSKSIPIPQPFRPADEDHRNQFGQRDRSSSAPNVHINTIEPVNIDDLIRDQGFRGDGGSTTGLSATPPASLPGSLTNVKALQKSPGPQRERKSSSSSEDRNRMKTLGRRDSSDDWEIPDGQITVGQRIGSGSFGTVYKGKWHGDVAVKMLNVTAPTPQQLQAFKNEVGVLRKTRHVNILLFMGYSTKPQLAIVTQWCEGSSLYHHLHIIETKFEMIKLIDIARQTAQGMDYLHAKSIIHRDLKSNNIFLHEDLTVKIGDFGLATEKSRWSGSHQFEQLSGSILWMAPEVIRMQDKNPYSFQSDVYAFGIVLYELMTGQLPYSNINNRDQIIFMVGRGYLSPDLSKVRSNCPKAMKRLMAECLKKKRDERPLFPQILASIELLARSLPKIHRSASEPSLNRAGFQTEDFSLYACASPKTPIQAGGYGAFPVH

Structure (SMILES) | IC50 [µM]
COc1cc(-c2[nH]c(-c3cccc(-c4ccncc4)c3)nc2-c2ccncc2)cnc1N [Compound 170, 3-methoxy-5-(4-(pyridin-4-yl)-2-(3-(pyridin-4-yl)phenyl)-1H-imidazol-5-yl)pyridin-2-amine] | 0.0002
COc1cc(-c2nc(-c3ccc(F)cc3)[nH]c2-c2ccnc(Nc3cccc(C(F)(F)F)c3)n2)cnc1N [Compound 171, 4-(4-(6-amino-5-methoxypyridin-3-yl)-2-(4-fluorophenyl)-1H-imidazol-5-yl)-N-(3-(trifluoromethyl)phenyl) pyrimidin-2-amine] | 0.0013
COc1cc(-c2nc(-c3ccc(F)cc3)[nH]c2-c2ccnc(Nc3cccc(F)c3)n2)cnc1N [Compound 172, 4-(4-(6-amino-5-methoxypyridin-3-yl)-2-(4-fluorophenyl)-1H-imidazol-5-yl)-N-(3-fluorophenyl)pyrimidin-2-amine] | 0.0014
COc1cc(-c2nc(-c3ccc(F)cc3)[nH]c2-c2ccnc(C#N)c2)cnc1N [Compound 173, 4-(4-(6-amino-5-methoxypyridin-3-yl)-2-(4-fluorophenyl)-1H-imidazol-5-yl)picolinonitrile] | 0.197
CCNc1nccc(-c2nc(-c3ccc(F)cc3)[nH]c2-c2cnc(N)c(OC)c2)n1 [Compound 174, 4-(5-(6-amino-5-methoxypyridin-3-yl)-2-(4-fluorophenyl)-1H-imidazol-4-yl)-N-ethylpyrimidin-2-amine] | 0.0023
CCCNc1nccc(-c2nc(-c3ccc(F)cc3)[nH]c2-c2cnc(N)c(OC)c2)n1 [Compound 175, 4-(5-(6-amino-5-methoxypyridin-3-yl)-2-(4-fluorophenyl)-1H-imidazol-4-yl)-N-propylpyrimidin-2-amine] | 0.0012
CC[C@H](C)Nc1nccc(-c2nc(-c3ccc(F)cc3)[nH]c2-c2cnc(N)c(OC)c2)n1 [Compound 176, (S)-4-(5-(6-amino-5-methoxypyridin-3-yl)-2-(4-fluorophenyl)-1H-imidazol-4-yl)-N-sec-butylpyrimidin-2-amine] | 0.0046
CC(=O)c1cc(-c2[nH]c(-c3ccc(F)cc3)nc2-c2ccncc2)cnc1N [Compound 177, 1-(2-amino-5-(2-(4-fluorophenyl)-4-(pyridin-4-yl)-1H-imidazol-5-yl)pyridin-3-yl)ethanone] | 0.003
COc1cc(-c2[nH]c(-c3ccc4[nH]ccc4c3)nc2-c2ccncc2)cnc1N [Compound 178, 5-(2-(1H-indol-5-yl)-4-(pyridin-4-yl)-1H-imidazol-5-yl)-3-methoxypyridin-2-amine] | 0.0009
COCCCNc1nccc(-c2nc(-c3ccc(F)cc3)[nH]c2-c2cnc(N)c(OC)c2)n1 [Compound 179, 4-(5-(6-amino-5-methoxypyridin-3-yl)-2-(4-fluorophenyl)-1H-imidazol-4-yl)-N-(3-methoxypropyl)pyrimidin-2-amine] | 0.001
COc1cc(-c2[nH]c(-c3ccc(F)cc3)nc2-c2ccnc(O)n2)cnc1N [Compound 180, 4-(5-(6-amino-5-methoxypyridin-3-yl)-2-(4-fluorophenyl)-1H-imidazol-4-yl)pyrimidin-2-ol] | 0.892
CC[C@@H](C)Nc1nccc(-c2nc(-c3ccc(F)cc3)[nH]c2-c2cnc(N)c(OC)c2)n1 [Compound 181, (R)-4-(5-(6-amino-5-methoxypyridin-3-yl)-2-(4-fluorophenyl)-1H-imidazol-4-yl)-N-sec-butylpyrimidin-2-amine] | 0.0099
Cc1c[nH]c2ncc(-c3[nH]c(-c4ccc(F)cc4)nc3-c3ccncc3)cc12 [Compound 182, 5-(2-(4-fluorophenyl)-4-(pyridin-4-yl)-1H-imidazol-5-yl)-3-methyl-1H-pyrrolo[2,3-b]pyridine] | 0.0002
COc1cc(-c2[nH]c(-c3ccc(F)cc3)nc2-c2ccnc(NCC3CC3)n2)cnc1N [Compound 183, 4-(5-(6-amino-5-methoxypyridin-3-yl)-2-(4-fluorophenyl)-1H-imidazol-4-yl)-N-(cyclopropylmethyl) pyrimidin-2-amine] | 0.0007
COc1cc(-c2nc(C(C)(C)C)[nH]c2-c2ccnc(Nc3ccc(N4C[C@@H](C)O[C@@H](C)C4)nc3)n2)cnc1N [Compound 184, 4-(4-(6-amino-5-methoxypyridin-3-yl)-2-tert-butyl-1H-imidazol-5-yl)-N-(6-((2R,6S)-2,6-dimethylmorpholino)-pyridin-3-yl)pyrimidin-2-amine] | 0.0003
COc1cc(-c2nc(C(C)(C)C)[nH]c2-c2ccnc(N[C@@H]3CCN(C(C)=O)C3)n2)cnc1N [Compound 185, (R)-1-(3-(4-(4-(6-amino-5-methoxypyridin-3-yl)-2-tert-butyl-1H-imidazol-5-yl)pyrimidin-2-ylamino)pyrrolidin-1-yl)ethanone] | 0.0032

Structure (SMILES) | IC50 [µM]
COc1cc(-c2nccc(-c3[nH]c(C(C)(C)C)nc3-c3cnc(N)c(OC)c3)n2)cnc1N [Compound 186, 5-(4-(4-(6-amino-5-methoxypyridin-3-yl)-2-tert-butyl-1H-imidazol-5-yl)pyrimidin-2-yl)-3-methoxypyridin-2-amine] | 0.0299
COc1cc(-c2[nH]c(-c3ccc(F)cc3)nc2-c2ccnc(Nc3ccc(N4C[C@@H](C)O[C@@H](C)C4)nc3)n2)cnc1N [Compound 187, 4-(5-(6-amino-5-methoxypyridin-3-yl)-2-(4-fluorophenyl)-1H-imidazol-4-yl)-N-(6-((2S,6R)-2,6-dimethylmorpholino)-pyridin-3-yl)pyrimidin-2-amine] | 0.0005
COc1cc(-c2nc(C(C)(C)C)[nH]c2-c2ccnc(Nc3ccc4c(c3)OC(F)(F)O4)n2)cnc1N [Compound 189, 4-(4-(6-amino-5-methoxypyridin-3-yl)-2-tert-butyl-1H-imidazol-5-yl)-N-(2,2-difluorobenzo[d][1,3]dioxol-5-yl)pyrimidin-2-amine] | 0.0003
COc1cc(-c2nc(C(C)(C)C)[nH]c2-c2ccnc(Nc3cccc(OC(F)(F)F)c3)n2)cnc1N [Compound 190, 4-(4-(6-amino-5-methoxypyridin-3-yl)-2-tert-butyl-1H-imidazol-5-yl)-N-(3-(trifluoromethoxy)phenyl) pyrimidin-2-amine] | 0.0003
COc1cc(-c2nc(C(C)(C)C)[nH]c2-c2ccnc(Nc3cccc(C(F)(F)F)c3)n2)cnc1N [Compound 191, 4-(4-(6-amino-5-methoxypyridin-3-yl)-2-tert-butyl-1H-imidazol-5-yl)-N-(3-(trifluoromethyl)phenyl) pyrimidin-2-amine] | 0.0004
COc1ccc(CNc2nccc(-c3[nH]c(C(C)(C)C)nc3-c3cnc(N)c(OC)c3)n2)cc1 [Compound 192, 4-(4-(6-amino-5-methoxypyridin-3-yl)-2-tert-butyl-1H-imidazol-5-yl)-N-(4-methoxybenzyl)pyrimidin-2-amine] | 0.0002
COc1cc(-c2[nH]c(-c3ccc(F)cc3)nc2-c2ccnc(N[C@@H]3CCN(C(C)=O)C3)n2)cnc1N [Compound 193, (R)-1-(3-(4-(5-(6-amino-5-methoxypyridin-3-yl)-2-(4-fluorophenyl)-1H-imidazol-4-yl)pyrimidin-2-ylamino)pyrrolidin-1-yl)ethanone] | 0.038
COc1cc(-c2[nH]c(-c3ccc(F)cc3)nc2-c2ccnc(N[C@H]3CCN(C(C)=O)C3)n2)cnc1N [Compound 194, (S)-1-(3-(4-(5-(6-amino-5-methoxypyridin-3-yl)-2-(4-fluorophenyl)-1H-imidazol-4-yl)pyrimidin-2-ylamino)pyrrolidin-1-yl)ethanone] | 0.008
COc1cc(-c2nc(-c3ccc(F)cc3)[nH]c2-c2ccnc(NC[C@H](C)NS(C)(=O)=O)n2)cnc1N [Compound 195, (S)-N-(1-(4-(4-(6-amino-5-methoxypyridin-3-yl)-2-(4-fluorophenyl)-1H-imidazol-5-yl)pyrimidin-2-ylamino)propan-2-yl)methanesulfonamide] | 0.0001
COc1cc(-c2nc(-c3ccc(F)cc3)[nH]c2-c2ccnc(NC[C@H](C)NC(=O)[C@@H](C)OC)n2)cnc1N [Compound 196, (R)-N-((S)-1-(4-(4-(6-amino-5-methoxypyridin-3-yl)-2-(4-fluorophenyl)-1H-imidazol-5-yl)pyrimidin-2-ylamino)propan-2-yl)-2-methoxypropanamide] | 0.0002
COc1cc(-c2nc(-c3ccc(F)cc3)[nH]c2-c2ccnc(NC[C@H](C)NC(=O)[C@H](C)OC)n2)cnc1N [Compound 197, (S)-N-((S)-1-(4-(4-(6-amino-5-methoxypyridin-3-yl)-2-(4-fluorophenyl)-1H-imidazol-5-yl)pyrimidin-2-ylamino)propan-2-yl)-2-methoxypropanamide] | 0.0001
COc1cc(-c2[nH]c(-c3ccc(F)cc3)nc2-c2ccnc(N[C@@H]3CCN(S(C)(=O)=O)C3)n2)cnc1N [Compound 199, (R)-4-(5-(6-amino-5-methoxypyridin-3-yl)-2-(4-fluorophenyl)-1H-imidazol-4-yl)-N-(1-(methylsulfonyl)pyrrolidin-3-yl)pyrimidin-2-amine] | 0.015
COc1cc(-c2[nH]c(-c3ccc(F)cc3)nc2-c2ccnc(N[C@H]3CCN(S(C)(=O)=O)C3)n2)cnc1N [Compound 200, (S)-4-(5-(6-amino-5-methoxypyridin-3-yl)-2-(4-fluorophenyl)-1H-imidazol-4-yl)-N-(1-(methylsulfonyl)pyrrolidin-3-yl)pyrimidin-2-amine] | 0.004
COc1cc(-c2nc(C(C)(C)C)[nH]c2-c2ccnc(N)n2)cnc1N [Compound 201, 4-(4-(6-amino-5-methoxypyridin-3-yl)-2-tert-butyl-1H-imidazol-5-yl)pyrimidin-2-amine] | 0.0005
COCC(=O)NCCNc1nccc(-c2nc(-c3ccc(F)cc3)[nH]c2-c2cc(C)c3ncnn3c2)n1 [Compound 202, N-(2-(4-(2-(4-fluorophenyl)-5-(8-methyl-[1,2,4]triazolo[1,5-a]pyridin-6-yl)-1H-imidazol-4-yl)pyrimidin-2-ylamino)ethyl)-2-methoxyacetamide] | 0.025
